Measurements published in publication PMC11437215 (Nature Communications, 2024).

How the values were obtained:
[1] = test system: CD4+ T cell clones BDC2.5 and BDC6.9; conditions: cited from earlier work
[2] = test system: tetramer-binding CD4+ T cells; assay: Flow cytometry of anergy markers CD73 and FR4 in tetramer-binding CD4+ T cells; type: cell-based, NOD and NOD.Ins2−/− mice; conditions: SLOs (Supplementary Fig. 9a)
[3] = test system: tetramer-binding CD4+ T cells; assay: Flow cytometry of FOXP3 and CD44 in tetramer-binding CD4+ T cells; type: cell-based, NOD and NOD.Ins2−/− mice; conditions: NOD mice (Fig. 6b)
CD4+ T cells in SLOs = assay: Quantification of tetramer-binding CD4+ T cells in SLOs; type: cell-based; conditions: SLOs of 6–8-week-old female NOD mice
[4] = test system: 9B9 (G20-specific) and IIT-3 (E21-specific) CD4+ T cell hybridomas; type: cell-based, mouse; conditions: C3.g7 APC pulsed with antigen; IL-2 (Supplementary Fig. 1a, b)
[5] = test system: 9B9, IIT-3, CP1- and CP2-specific CD4+ T cell hybridomas; type: cell-based, NOD and NOD.B16A mice; conditions: mTECs from NOD or NOD.B16A mice
[6] = test system: 9B9, IIT-3, CP1- and CP2-specific CD4+ T cell hybridomas; type: cell-based, NOD and NOD.B16A mice; conditions: 8 to 10-week-old female NOD mice
[7] = test system: popliteal lymph node T cells (IFNγ, IL-2); assay: ELISPOT recall after peptide immunization; conditions: immunized with B:9–23 (Fig. 7c)
[8] = test system: type 1 diabetes progression; conditions: autoantibody-positive (stage 1) T1D patients; cited from earlier work
I-A^g7 = conditions: Q-to-E conversion; cited from earlier work
[9] = test system: crinosomes in pancreatic β cells; assay: Electron microscopy count of crinophagic granules; type: in vivo, NOD mice
[10] = test system: 9B9 T cell (G20-specific); assay: Presentation of G20 by blood leukocytes after glucose challenge; type: cell-based, NOD mice
[11] = test system: crinosome subcellular fraction of β cells; assay: Crinosome peptidome by mass spectrometry; parameters: species or system NOD mice
[12] = test system: 9B9 T cell (G20-specific); assay: Presentation of G20 by dispersed islet cells; conditions: chloroquine vs PBS; B:9–23 10 µM
[13] = test system: insulin epitopes G20 and E21 in crinosome and DCG subcellular fractions; assay: Granule-based antigen presentation assay: crinosome; type: cell-based, NOD mice; conditions: chloroquine vs PBS
[14] = test system: autoimmune diabetes in female NOD mice; assay: Diabetes development; conditions: chloroquine group, all PBS-treated mice became diabetic

Compound: LQTLAL-NAARD [6.9HIP]
- agonist activity on CD4+ T cell clones BDC2.5 and BDC6.9 [1]: strong agonists
- expression of CD73 and FR4 in the FOXP3−CD44hi subset of tetramer-binding T cells [2]: much less expression of CD73 and FR4

Compound: VEALYLVCG [G20]
- FOXP3 phenotype of tetramer-binding CD4+ single-positive thymocytes [3]: mostly FOXP3^− conventional T cells
- expression of CD73 and FR4 in the FOXP3−CD44hi subset of tetramer-binding T cells [2]: much less expression of CD73 and FR4

Compound: TQSPLLKRQLTSFIEKGQE [DBP]
- tetramer-binding cells per million CD4+ T cells (CD4+ T cells in SLOs): less than 5 per million CD4^+ T cells

Compound: LQTLAL-WSRMD [2.5HIP]
- agonist activity on CD4+ T cell clones BDC2.5 and BDC6.9 [1]: strong agonists
- expression of CD73 and FR4 in the FOXP3−CD44hi subset of tetramer-binding T cells [2]: much less expression of CD73 and FR4

Compound: TEGVEALYLVCGGGS [Syn-G20]
- responses of the 9B9 (G20-specific) and IIT-3 (E21-specific) hybridomas [4]: exclusively reacted to their corresponding epitopes

Compound: EALYLVCGE [E21]
- FOXP3 phenotype of tetramer-binding CD4+ single-positive thymocytes [3]: majority
- expression of CD73 and FR4 in the FOXP3−CD44hi subset of tetramer-binding T cells [2]: high expression of both CD73 and FR4

Compound: insulin
- presentation of E21 and G20 by mTECs pulsed with antigen [5]: strong presentation of E21, whereas presentation of G20 was minimal
- presentation of E21 and G20 by dispersed islets pulsed with antigen [6]: only presentation of E21, but not G20, was enhanced
- responses of the 9B9 (G20-specific) and IIT-3 (E21-specific) hybridomas [4]: Only the IIT-3 but not the 9B9 T cell responded
- T cell responses upon recall in NOD.Ins2−/− mice [7]: significantly enhanced
- T cell responses upon recall in WT NOD mice [7]: minimal

Compound: TEGEALYLVCGEGGS [Syn-E21]
- responses of the 9B9 (G20-specific) and IIT-3 (E21-specific) hybridomas [4]: exclusively reacted to their corresponding epitopes
- T cell responses upon recall in NOD.Ins2−/− mice [7]: significantly enhanced
- T cell responses upon recall in WT NOD mice [7]: minimal

Compound: CCN(CCO)CCCC(C)Nc1ccnc2cc(Cl)ccc12 (centres unmarked) [hydroxychloroquine]
- autoantibody acquisition and titers of anti-insulin and anti-GAD antibodies [8]: reduced
- progression to stage 2 T1D [8]: did not delay

Compound: ILSVHVATAASQDS [ZnT8]
- tetramer-binding cells per million CD4+ T cells (CD4+ T cells in SLOs): less than 5 per million CD4^+ T cells

Compound: GDLQTLALEVARE [CP1d]
- binding affinity to I-A^g7 relative to native CP1 (I-A^g7): enhanced the binding affinity

Compound: CCN(CC)CCCC(C)Nc1ccnc2cc(Cl)ccc12 (centres unmarked) [Chloroquine, chloroquine]
- change of crinosome-like vesicles in β cells ([9]; male and female NOD mice, short-term chloroquine vs PBS): reduced by half
- diminishing of crinophagic granules and associated peptide production ([9]; young NOD mice (discussion summary)): about 50%
- presentation of G20 by blood leukocytes during pulse with exogenous B:9–23 ([10]; chloroquine vs PBS, B:9–23 10 µM): without affecting
- duration of the effect in inhibiting G20 presentation ([10]; preliminary experiments): about three days
- overall HIP abundance in crinosomes ([11]; chloroquine vs PBS): significant decrease
- relative abundance of deamidated insulin C-peptides in the crinosome peptidome ([11]; chloroquine vs PBS): significant reduction
- number of peptides in the crinosome peptidome ([11]; chloroquine vs PBS, 1.2 × 10^6 β cells per condition): significant reduction
- HIPs identified in crinosomes ([11]; mice given chloroquine, ten HIPs in PBS control): only one HIP
- PTMs in the crinosome peptidome (methionine oxidation, deamidation, dehydration, phosphorylation, formylation) ([11]; peptide-spectra matches, chloroquine vs PBS): reduced
- G20 presentation by dispersed islet cells pulsed with exogenous B:9–23 peptide [12]: no difference
- effect on presentation of both epitopes in DCGs [13]: did not influence
- reduction in the presentation level of both G20 and E21 in the crinosome fraction ([13]; male and female NOD mice): ~ 50%
- mice remaining diabetes free by 35 weeks of age [14]: about 33%
